Test results: the NIST ThermoML archive (doi:10.1021/je200673a)

Assay: molar heat capacity at constant pressure
Conditions: 101.33 kPa, Crystal, Vacuum adiabatic calorimetry

C(#Cc1ccccc1)c1ccccc1 [1,2-diphenylethyne]
Conditions | molar heat capacity at constant pressure [J/K/mol]
5 K | 0.4461
7.76 K | 1.66
8.24 K | 1.997
8.4 K | 2.155
8.56 K | 2.246
8.71 K | 2.325
8.87 K | 2.454
9.02 K | 2.473
9.17 K | 2.661
9.32 K | 2.644
9.46 K | 2.813
9.61 K | 3.003
9.75 K | 3.203
9.9 K | 3.352
10 K | 3.39
10.04 K | 3.408
10.23 K | 3.58
10.46 K | 3.861
10.7 K | 4.163
10.94 K | 4.495
11.19 K | 4.753
11.43 K | 4.952
11.67 K | 5.282
11.92 K | 5.556
12.16 K | 5.878
12.4 K | 6.207
12.65 K | 6.564
12.9 K | 6.777
13.14 K | 7.156
13.39 K | 7.478
13.65 K | 7.835
13.9 K | 8.246
14.15 K | 8.579
14.4 K | 8.944
14.66 K | 9.243
14.91 K | 9.637
15.16 K | 9.985
15.42 K | 10.37
15.67 K | 10.79
15.93 K | 11.12
16.19 K | 11.5
16.44 K | 11.93
16.7 K | 12.28
16.96 K | 12.67
17.22 K | 13.04
17.48 K | 13.53
17.74 K | 13.89
18 K | 14.4
18.26 K | 14.75
18.52 K | 15.13
18.78 K | 15.54
19.05 K | 15.99
19.31 K | 16.45
19.57 K | 16.8
19.83 K | 17.2
20 K | 17.46
20.1 K | 17.57
20.52 K | 18.22
21.06 K | 19.09
21.59 K | 19.97
22.13 K | 20.72
22.66 K | 21.52
23.2 K | 22.37
23.74 K | 23.22
24.28 K | 24.1
24.82 K | 25
25 K | 25.27
25.36 K | 25.89
25.9 K | 26.74
26.44 K | 27.46
26.99 K | 28.2
27.53 K | 29.01
28.08 K | 29.84
28.62 K | 30.62
29.17 K | 31.47
29.72 K | 32.26
30 K | 32.68
30.27 K | 33.13
30.82 K | 33.87
31.36 K | 34.72
31.91 K | 35.51
32.46 K | 36.31
33.02 K | 37.01
33.57 K | 37.75
34.12 K | 38.45
34.67 K | 39.14
35 K | 39.59
35.23 K | 39.87
35.78 K | 40.61
36.33 K | 41.23
36.89 K | 41.86
37.44 K | 42.57
38 K | 43.15
38.56 K | 43.79
39.11 K | 44.41
39.67 K | 45.07
40 K | 45.41
40.22 K | 45.63
40.78 K | 46.31
41.33 K | 46.9
41.89 K | 47.45
42.45 K | 48.18
43 K | 48.73
43.56 K | 49.34
44.12 K | 49.91
44.67 K | 50.46
45 K | 50.83
45.23 K | 51.09
45.79 K | 51.68
46.35 K | 52.17
46.91 K | 52.71
47.47 K | 53.2
48.03 K | 53.68
48.59 K | 54.18
49.15 K | 54.59
49.71 K | 55.12
50 K | 55.37
50.26 K | 55.73
50.82 K | 56.2
51.38 K | 56.69
51.94 K | 57.24
52.5 K | 57.84
53.06 K | 58.52
53.62 K | 59.22
54.18 K | 59.95
54.74 K | 60.54
55 K | 60.87
55.3 K | 61.31
55.87 K | 61.85
56.43 K | 62.34
56.99 K | 62.76
57.55 K | 63.28
58.11 K | 63.73
58.67 K | 64.14
59.23 K | 64.53
59.8 K | 64.94
60 K | 65.09
60.36 K | 65.36
60.92 K | 65.81
61.48 K | 66.28
62.04 K | 66.76
62.6 K | 67.25
63.16 K | 67.82
63.73 K | 68.11
64.29 K | 68.62
64.85 K | 68.97
65 K | 69.08
65.42 K | 69.41
65.98 K | 69.58
66.54 K | 69.95
67.11 K | 70.3
67.67 K | 70.73
68.23 K | 71.09
68.8 K | 71.47
69.36 K | 71.95
69.92 K | 72.22
70 K | 72.22
70.61 K | 72.52
71.41 K | 72.9
72.21 K | 73.45
73.01 K | 73.99
73.82 K | 74.48
74.62 K | 74.91
75 K | 75.15
75.42 K | 75.39
76.23 K | 75.72
77.03 K | 76.12
77.83 K | 76.43
78.64 K | 76.81
79.44 K | 77.36
80 K | 77.65
80.24 K | 77.8
81.05 K | 78.26
81.85 K | 78.59
82.56 K | 78.83
82.65 K | 79
83.36 K | 79.36
83.46 K | 79.49
84.16 K | 79.79
84.26 K | 79.97
84.96 K | 80.29
85 K | 80.26
85.77 K | 80.6
86.57 K | 81.07
87.37 K | 81.61
88.17 K | 81.87
88.98 K | 82.43
89.78 K | 82.92
90 K | 82.96
90.58 K | 83.29
91.39 K | 83.69
92.19 K | 84.3
92.99 K | 84.62
93.8 K | 85.08
94.6 K | 85.51
95 K | 85.79
95.4 K | 85.87
96.21 K | 86.49
97.01 K | 86.97
97.81 K | 87.46
98.61 K | 87.8
99.42 K | 88.33
100 K | 88.7
100.22 K | 88.79
101.02 K | 89.52
101.82 K | 89.71
102.62 K | 90.12
103.42 K | 90.81
104.22 K | 91.27
105.03 K | 91.64
105.84 K | 92.04
106.64 K | 92.61
107.45 K | 93.03
108.25 K | 93.65
109.06 K | 94.16
109.87 K | 94.48
110 K | 94.56
110.68 K | 94.84
111.49 K | 95.38
112.3 K | 95.96
113.12 K | 96.26
113.93 K | 96.77
114.74 K | 97.3
115.56 K | 97.84
116.37 K | 98.29
117.19 K | 98.7
118.01 K | 99.29
118.83 K | 99.69
119.65 K | 100.31
120 K | 100.39
120.47 K | 100.58
121.29 K | 101.29
122.11 K | 101.7
